Values quoted from earlier work as cited in patent US9180195B2, “Controlled release gels” (Nano Fiber Matrices B.V., priority 2005, dated 2015).

Details: for time to complete release from LMWG gel: from gels of N,N′-dibenzoyl-L-cystine (DBC)

SMILES	time to complete release from LMWG gel	initial release rate relative to AQ (from gels of DBC)
Nc1cccc2cccnc12 [AQ, 8-aminoquinoline]	~1 h	–
Oc1ccc2ccccc2n1 [HQ, 2-hydroxyquinoline]	approximately 15 min	approximately seven
